Here are results for 10 compounds from patent US8952025B2, “Multifunctional radical quenchers and their uses” (Arizona Board of Regents, A Body Corporate of the State of …, priority 2010, dated 2015).

Entries after “also recorded” stand apart in the source; their conditions may differ.

Data set [1] has as its system CEM leukemia cells. As to the kind of experiment: Mitochondrial membrane potential (Δψm) assay, TMRM, FACS. As to conditions: pretreatment 0.5, 1 or 2.5 μM overnight, DEM. It is filed as cell-based, human. As for the experimental part:
Measurement of Mitochondrial Membrane Potential (Δψm)(FACS). For the determination of Δψm, CEM leukemia cells were pre-treated with or without the test compounds. The cells were treated with 5 mM DEM for 120 minutes, collected by centrifugation at 300×g for 3 minutes and then washed twice with phosphate buffered saline. The cells were re-suspended in HSSB buffer and incubated at 37° C. in the dark for 15 minutes with 250 nM TMRM (a cationic dye which accumulates within mitochondria in accordance with the Δψm Nernst potential). Cells were collected by centrifugation at 300×g for 3 minutes and then washed twice with phosphate buffered saline. The samples were analyzed immediately by flow cytometry using 488 nm excitation laser and the FL2-H channel. The results obtained were verified in three independent experiments. The protonophore FCCP (30 μM) was used to dissipate the chemiosmotic proton gradient (ΔμH^+) and served as a control for loss of Δψm. In each analysis, 10,000 events were recorded.

Data set [2] concerns CEM cells. The experiment in a line: Reactive oxygen species (ROS) assay, DCFH-DA, DEM-treated cells. It is filed as cell-based, human. Particulars: for suppression of ROS (DCFH-DA): 0.25 μM for 15 hours, DEM 40 min, CCRF-CEM cells. An excerpt:
Cellular ROS production can be monitored using 2′,7′-dichlorodihydrofluorescein diacetate (DCFH-DA) (LeBel et al. (1992) Chem. Res. Toxicol. 5, 227-231) (Molecular Probes, Eugene, Oreg., USA), a membrane permeable and oxidant-sensitive fluorescent dye. DCFH-DA is a non-fluorescent derivative of fluorescein that emits fluorescence after being oxidized by hydrogen peroxide and other ROS. The emitted fluorescence is directly proportional to the concentration of hydrogen peroxide. DCFH-DA is nonionic and nonpolar and is easily taken up by cells. Once inside the cell, DCFH-DA is hydrolyzed by cellular esterases to non-fluorescent DCFH which traps the dye in the cell. In the presence of ROS including hydrogen peroxide, DCFH is oxidized to the highly fluorescent compound dichlorofluorescein (DCF). The intracellular DCF fluorescence is used as an index of cellular ROS production.
Cellular oxidative stress was induced by pharmacological depletion of glutathione (GSH) using the chemical diethylmaleate (DEM). ROS production was assessed by monitoring DCF fluorescence. Leukemic CEM cells (ATCC®, catalogue number CRL-2264) were cultured in RPMI (GIBCO, Grand island, N.Y., USA) with 10% FCS, 2 mM glutamine (HyClone, South Logan, Utah, USA) and 1% penicillin-streptomycin mix antibiotics (Cellgro, Manassan, Va., USA) supplements. Cells were maintained in the log phase at a concentration of between 1×10^5 and 1×10^6 cells/mL. CEM cells (1×10^6 cell/mL) were plated (1 mL) in twelve well plate and treated with the invention compounds (final concentration 1 and 5 μM), and incubated for two hours at 37° C., 5% CO2. The compounds tested were prepared by first making stock solutions (2.5 mM) in dimethylsulfoxide (DMSO). Cells were treated with 5 mM DEM for 30 minutes and collected by centrifugation at 300×g for 3 min and then washed twice with Hanks' Balanced Salt Solution (HSSB) buffer (Sigma, St. Louis, Mo. USA). Cells were resuspended in HSSB buffer+10 mM glucose and incubated at 37° C. in the dark for 20 min with 10 μM DCFH-DA. Cells were collected by centrifugation at 300×g for 3 min and then washed twice with HSSB buffer. The samples were analyzed immediately by flow cytometry (Becton-Dickinson FACS Caliber), (Cell Quest software, BD Biosciences) using 488 nm excitation laser and FL1-H channel 538 nm emission filter. In each analysis, 10,000 events were recorded after cell debris were electronically gated out. Results obtained were verified by repeating experiments N=3 independent experiments. Authentic hydrogen peroxide was used as a positive control.

For data set [3], the system named is CEM cells. As to the kind of experiment: Trypan blue cell viability assay, DEM-treated cells. The format is cell-based, human. As to conditions: overnight incubation, then 5 mM DEM, 3 h. As for the experimental part: Cell viability determined by trypan blue exclusion assay: This technique was used to assess the cytoprotective effects of the invention compounds in cultured cells pharmacologically treated to induce cell death by GSH depletion. DEM was used to deplete cellular GSH and induce oxidative stress. The viability of DEM-treated CEM cells was determined by their ability to exclude the dye trypan blue. Viable cells exclude trypan blue; whereas, non-viable cells take up the dye and stain blue. Briefly, CEM cells were grown in RPMI 1640 medium (GIBCO, Grand island, N.Y., USA) supplemented with 10% fetal calf serum, 2 mM glutamine (HyClone, South Logan, Utah, USA), 1% penicillin-streptomycin mix (Cellgro, Manassan, Va., USA). Cells were seeded at a density of 1×10^6 cells/mL and treated with different concentrations of the invention compounds. Cells were incubated at 37° C. in a humidified atmosphere of 5% CO2 in air for three hours with 5 mM DEM. Cell viability was determined by staining cells with 0.4% trypan blue using a hemacytometer. At least 500 cells were counted for each experimental group. At the time of assay, >95% of DEM-treated cells were trypan blue positive; whereas, in non-DEM treated control cell cultures >95% cells were viable. Cell viability was expressed as the percentage of control. Data are expressed as means±S.E.M (n=3).

The nature of data set [4]: C11-BODIPY581/591 oxidation lipid peroxidation assay in liposomes. As to conditions: 10 mM AAPH, phospholipid liposomes, phosphate buffer, 40° C. As for the experimental part:
To overcome the problem of spectral overlap using cis-parinaric acid, a fluorescence assay for lipid peroxidation using a lipophilic probe belonging to the BODIPY class of fluorescent dyes was used. C11-BODIPY^581/591 (4,4-difluoro-5(4-phenyl-1,3-butadienyl)-4-bora-3a,4a-diaza-s-indacene-3-propionic acid) fluorescence shifts from red to green upon oxidation. C11-BODIPY^581/591 (Molecular Probes, Eugene, Oreg., USA) stock solution concentrations were determined by measuring the absorption of C11-BODIPY^581/591 at 582 nm using a molar extinction coefficient of 140,000 mol^−1 cm^−1(R. P. Haugland, (1999) Handbook of Fluorescent Probes and Research Chemicals, Molecular Probes, Inc., Eugene, Oreg.). The lipid peroxidation inducer 2,2′-Azobis (2-amidino-propane dihydrochloride) (AAPH) and the antioxidant compound α-tocopherol were obtained from Sigma (St. Louis, Mo., USA). Phospholipid bilayers were prepared from 1-stearoyl-2-oleoyl-phosphatidylcholine (SOPC) and 1,2-dilinoleoyl-phosphatidylcholine (DLPC) and were purchased from Avanti® polar lipids, INC (Alabaster, Ala., USA).
Phosphotidylcholine (PC) liposomes were prepared as described before (Guey-Shuang et al. (1982) Lipids. 17, 403-413). Briefly, DLPC (25 mg) and SOPC (25 mg) were dissolved in chloroform and the solvent was removed by nitrogen evaporation (˜2 hours to give a thin film of PC in a round bottom flask. The lipid film was hydrated with 50 mL of 10 mM Tris-HCl (pH 7.4), 100 mM KCl, shaken and sonicated for 15 seconds. The liposomes obtained were filtered several times through 0.2 μM membrane filter.
C11 BODIPY^581/591 was incorporated into liposomes and oxidized by peroxyl radicals derived from the decomposition of AAPH in presence and absence of the compounds. […] Liposomes were pre-incubated for 10 min with 200 nM C11 BODIPY^581/591 to allow their incorporation into the lipid phase of the liposomes. After the addition of AAPH (10 mM) the decay of red fluorescence was followed at λ exc=570 nm, λ em=600 nm. Relative fluorescence units were normalized to 100% intensity. Results obtained were verified by repeating experiments N=3 independent experiments.

Data set [5] has as its system CEM leukemia cells. The experiment in a line: C11-BODIPY581/591 oxidation in cell culture (lipid peroxidation). It is filed as cell-based, human. Particulars: 2.5 or 1 μM, pretreatment 4 or 24 hours, glutathione depleted. On the procedure:
Lipid peroxidation in CEM leukemia cells was detected by utilizing the oxidant-sensitive lipophilic probe C11 BODIPY^581/591. Briefly, CEM cells (5×10^5 cell/mL) were treated with the test compounds at final concentrations of 1 and 2.5 μM, and incubated at 37° C. for 4 or 24 h in a humidified atmosphere containing 5% CO2 in air. Cells were treated with 500 nM C11 BODIPY^581/591 in phenol red-free RPMI-1640 media and incubated at 37° C. in the dark for 30 minutes. The cells were washed twice with phosphate buffered saline and oxidative stress was induced with 5 mM DEM in phenol red-free RPMI-1640 media for 90 minutes. Treated cells were collected by centrifugation at 300×g for 3 minutes and then washed twice with phosphate buffered saline. Cells were resuspended in 250 μL of phosphate buffered saline and were analyzed by FACS (FACS Calibur flow cytometer, Becton Dickinson) to monitor the change in intensity of the C11 BODIPY^581/591-green (oxidized) fluorescence signal.

Another data set relates to Human CEM leukemia cells. As to the kind of experiment: Live/Dead Viability/Cytotoxicity flow cytometry assay. The format is cell-based. As to conditions: overnight incubation, then DEM 3 hours. On the procedure: Cell viability and cytotoxicity were determined by simultaneous staining live and dead cells using a two-color fluorescence assay, the Live/Dead® Viability/Cytotoxicity Kit (Molecular Probes). This assay is used to measure two recognized parameters of cell viability, intracellular esterase activity and plasma integrity. The membrane-impermeant DNA dye ethidium homodimer-1 (EthD-1) was used to identify dead cells whose plasma membrane integrity was disrupted. The membrane-permeant dye calcein-AM was used to label live cells. It penetrates into the cells where it is metabolized by cytoplasmic esterases and becomes a fluorescent but membrane-impermeant probe which is retained in viable cells. Human CEM leukemia cells were incubated overnight in RPMI medium (control) and in the presence of test compound and then treated with DEM for 3 hours. Cells were stained with 0.2 μM calcein-AM and 0.4 μM EthD-1. After 15 minutes, flow cytometry analysis was carried out using excitation at 488 nm. The green-fluorescent (539 nm) FL1-H channel, live-cell population appears in the lower right quadrant and the red-fluorescent (585 nm) FL2-H channel dead-cell population appears in the upper left quadrant (FIG. 11). In each analysis, 10,000 events were recorded. Results obtained were verified in three independent experiments.
On the technique in general: Flow cytometry measures light scatter and fluorescence of single cells or particles in a stream.

With `COc1nc(N(C)C)nc(CCCCCCCCCCO)c1O` [Compound D, 2-(dimethylamino)-4-(10-hydroxydecyl)-6-methoxypyrimidin-5-ol], in the data set with CEM leukemia cells [1], the “maintaining mitochondrial membrane potential Δψm” value is “the most effective in maintaining mitochondrial membrane potential; also recorded: very favorable properties”. In addition, the “suppression of ROS production (DCF fluorescence)” value in the data set with CEM cells [2] (pretreatment 0.5, 1 or 5 μM, DEM) is given as “most effective compound in suppressing ROS; also recorded: very effective in suppressing ROS”. The “maintaining cell viability (trypan blue exclusion)” value in the data set with CEM cells [3] was “quite effective in maintaining cell viability following DEM treatment, with D being the most effective; also recorded: superior to idebenone in maintaining the viability of DEM-treated cells”.
On to `COc1cc(C)c(O)c(CCCCCCCCCCO)n1` [Compound F, 2-(10-hydroxydecyl)-6-methoxy-4-methylpyridin-3-ol], for which the melting point fell in the range of 80 to 81 °C.
Same read-out and setting: for `CCCCCc1nc(N(C)C)nc(C)c1O` [Compound H, 2-(dimethylamino)-4-methyl-6-pentylpyrimidin-5-ol] the value was 61 to 62 °C.
Compound `CCCCCCCCCCc1nc(N(C)C)nc(C)c1O` [Compound I, 4-decyl-2-(dimethylamino)-6-methylpyrimidin-5-ol] registered a melting point of 71 to 72 °C. The “suppression of ROS (DCFH-DA)” value in the data set with CEM cells [2] is “most effective compounds at suppressing ROS in this assay; also recorded: especially effective”.
For `CCCCCCCCCCCCCCCCc1nc(N(C)C)nc(C)c1O` [Compound J, 2-(dimethylamino)-4-hexadecyl-6-methylpyrimidin-5-ol] the same measures were 86 to 87 °C and “most effective compounds at suppressing ROS in this assay; also recorded: especially effective”.
The compound `Cc1nc(N)nc(CCCCCCCCCCO)c1O` [Example 10, 2-amino-4-(10-hydroxydecyl)-6-methylpyrimidin-5-ol] had a melting point of 103 to 104 °C.
As to `Cc1nc(N(C)C)nc(C)c1O` [compound 12, 2-N,N-dimethylamino-5-hydroxy-4,6-dimethylpyrimidine], in data set [4], the “quenching of lipid peroxidation (retention of C11-BODIPY581/591 fluorescence)” value was “less active than its counterpart compound A”.
In the case of `CC(=O)Oc1c(C)nc2c(c1CC[C@](C)(O)CCC[C@H](C)CCC[C@H](C)CCCC(C)C)CCN2C` [compound 35, 4-((3R,7R,11R)-3-hydroxy-3,7,11,15-tetramethylhexadecyl)-1,6-dimethyl-2,3-dihydro-1H-pyrrolo[2,3-b]pyridine-5-yl acetate], in the data set with CEM cells [3], the “maintaining cell viability (trypan blue exclusion)” value is reported as “both effective in maintaining cell viability following treatment with DEM, with the acetate of compound C being somewhat more effective”.
Take `COc1c(O)c(C)c(CCCCCCCCCCO)c(O)c1OC` [idebenol, reference compound]: the “protection against ROS production (DCF fluorescence)” value in the data set with CEM cells [2] (compound 1 μM, 5 mM DEM) is given as “less effective at this concentration”.
Turning to `Cc1c(C)c2c(c(C)c1O)CCC(C)(C(=O)O)O2` (centres unmarked) [trolox, reference compound], the “protection against lipid peroxidation in cells (C11-BODIPY581/591 green fluorescence)” value in the data set with CEM leukemia cells [5] is “no protection”. Moreover, the “protection against ROS production (DCF fluorescence)” value in the data set with CEM cells [2] (5 μM, pretreatment 4 or 24 h) is reported as “no protection”. Also, the “maintaining cell viability (trypan blue exclusion)” value with CEM cells [3] was “quite ineffective”. Further, the “maintaining cell viability (Live/Dead kit, flow cytometry)” value in the data set on Human CEM leukemia cells was “quite ineffective”.

As usually defined, the melting point is the temperature, or range, at which the solid turns liquid.
